According to paper PMC4577729, “7-(Pyrazol-4-yl)-3H-imidazo[4,5-b]pyridine-based derivatives for kinase inhibition: Co-crystallisation studies with Aurora-A reveal distinct differences in the orientation of the pyrazole N1-substituent” (Bioorganic & Medicinal Chemistry Letters, 2015):

Tests used:
Experiment in all cases: Kinase selectivity profiling
Type in all cases: biochemical
LKB1 = LKB1 (Homo sapiens, UniProt Q15831); conditions: 1 µM, assay duplicates
Description: (§1) [20] Kinase selectivity profiling for compounds 7a, 7d, 14d and 14g was carried out at the International Centre for Protein Kinase Profiling, Division of Signal Transduction Therapy, University of Dundee.
(§2) Table S1: Kinase selectivity profiling of compounds 7a and 7d in a 102-kinase panel screened at a concentration of 1 µM.
(§3) Table S2: Kinase selectivity profiling of compounds 14d and 14g in a 105-kinase panel screened at a concentration of 1 µM.

PKA = PKA (Homo sapiens, UniProt P17612); conditions: 1 µM, assay duplicates
Description: as §1, §2, §3

p38a MAPK = p38a MAPK (Homo sapiens, UniProt Q16539); conditions: 1 µM, assay duplicates
Description: as §1, §2, §3

PAK6 = PAK6 (Homo sapiens, UniProt Q9NQU5); conditions: 1 µM, assay duplicates
Description: as §1, §2, §3

MARK1 = MARK1 (Homo sapiens, UniProt Q9P0L2); conditions: 1 µM, assay duplicates
Description: as §1, §2, §3

JNK1 = JNK1 (Homo sapiens, UniProt P45983); conditions: 1 µM, assay duplicates
Description: as §1, §2, §3

AMPK = conditions: 1 µM, assay duplicates
Description: as §1, §2, §3

HER4 = HER4 (Homo sapiens, UniProt Q15303); conditions: 1 µM, assay duplicates
Description: as §1, §2, §3

PKBb = PKBb (Homo sapiens, UniProt P31751); conditions: 1 µM, assay duplicates
Chain of PKBb (P31751 whole entry): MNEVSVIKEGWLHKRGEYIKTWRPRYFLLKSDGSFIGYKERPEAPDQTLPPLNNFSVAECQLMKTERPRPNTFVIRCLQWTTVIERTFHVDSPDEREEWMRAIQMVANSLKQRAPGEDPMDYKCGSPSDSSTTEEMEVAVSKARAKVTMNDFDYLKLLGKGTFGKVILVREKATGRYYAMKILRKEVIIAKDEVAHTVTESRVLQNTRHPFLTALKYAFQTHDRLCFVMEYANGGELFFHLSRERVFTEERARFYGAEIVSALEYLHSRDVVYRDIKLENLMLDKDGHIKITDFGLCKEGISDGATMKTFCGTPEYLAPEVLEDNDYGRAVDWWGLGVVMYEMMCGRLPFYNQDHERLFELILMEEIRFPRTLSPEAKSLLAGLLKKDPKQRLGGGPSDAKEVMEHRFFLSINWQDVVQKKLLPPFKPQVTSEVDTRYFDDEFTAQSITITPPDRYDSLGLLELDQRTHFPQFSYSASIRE
Description: as §1, §2, §3

PRAK = PRAK (Homo sapiens, UniProt Q8IW41); conditions: 1 µM, assay duplicates
Description: as §1, §2, §3

CAMKKb = CAMKKb (Homo sapiens, UniProt Q96RR4); conditions: 1 µM, assay duplicates
Description: as §1, §2, §3

VEG-FR = VEG-FR (Homo sapiens, UniProt P17948); conditions: for VEGFR inhibition: 1 μM; for VEG-FR % activity remaining: 1 µM, assay duplicates
Chain of VEG-FR (P17948 27-1338): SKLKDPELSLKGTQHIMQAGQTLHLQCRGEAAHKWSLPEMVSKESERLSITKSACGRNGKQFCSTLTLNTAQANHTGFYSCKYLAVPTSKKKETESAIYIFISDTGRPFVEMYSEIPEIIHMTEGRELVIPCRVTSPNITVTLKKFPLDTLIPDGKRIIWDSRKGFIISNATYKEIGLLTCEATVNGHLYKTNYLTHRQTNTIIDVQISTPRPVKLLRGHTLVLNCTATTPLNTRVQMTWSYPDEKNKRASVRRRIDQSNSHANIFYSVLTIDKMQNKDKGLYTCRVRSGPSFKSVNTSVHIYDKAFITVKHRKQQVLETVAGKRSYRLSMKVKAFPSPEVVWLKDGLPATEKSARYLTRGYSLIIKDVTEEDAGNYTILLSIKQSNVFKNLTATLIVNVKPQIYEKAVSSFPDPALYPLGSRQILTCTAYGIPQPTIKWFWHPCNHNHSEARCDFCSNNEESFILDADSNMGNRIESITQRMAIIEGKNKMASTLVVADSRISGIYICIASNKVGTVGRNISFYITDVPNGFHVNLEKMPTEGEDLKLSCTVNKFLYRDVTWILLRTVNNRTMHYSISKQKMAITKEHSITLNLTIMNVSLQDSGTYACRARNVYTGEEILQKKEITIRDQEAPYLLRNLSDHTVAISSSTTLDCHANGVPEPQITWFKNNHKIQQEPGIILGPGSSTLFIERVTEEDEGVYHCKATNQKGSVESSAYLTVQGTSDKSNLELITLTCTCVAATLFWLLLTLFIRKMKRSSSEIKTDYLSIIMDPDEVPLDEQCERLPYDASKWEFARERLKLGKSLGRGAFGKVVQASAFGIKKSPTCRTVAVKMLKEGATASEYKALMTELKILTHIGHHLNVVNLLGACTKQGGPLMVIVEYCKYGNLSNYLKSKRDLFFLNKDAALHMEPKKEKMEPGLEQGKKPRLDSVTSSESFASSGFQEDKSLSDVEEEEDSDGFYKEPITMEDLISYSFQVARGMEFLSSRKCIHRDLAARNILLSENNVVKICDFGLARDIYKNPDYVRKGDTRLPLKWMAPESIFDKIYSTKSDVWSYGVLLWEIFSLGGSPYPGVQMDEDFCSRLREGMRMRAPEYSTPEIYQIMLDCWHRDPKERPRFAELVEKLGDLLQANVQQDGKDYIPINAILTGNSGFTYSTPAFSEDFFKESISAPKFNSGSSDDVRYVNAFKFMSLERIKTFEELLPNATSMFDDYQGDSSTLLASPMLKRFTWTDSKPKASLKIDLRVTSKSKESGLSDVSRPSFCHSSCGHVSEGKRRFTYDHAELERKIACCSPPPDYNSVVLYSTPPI
Description: as §1, §2, §3

EPH-A2 = EPH-A2 (Homo sapiens, UniProt P29317); conditions: 1 µM, assay duplicates
Description: as §1, §2, §3

EPH-B3 = EPH-B3 (Homo sapiens, UniProt P54753); conditions: 1 µM, assay duplicates
Description: as §1, §2, §3

S6K1 = S6K1 (Homo sapiens, UniProt P23443); conditions: 1 µM, assay duplicates
Description: as §1, §2, §3

MELK = MELK (Homo sapiens, UniProt Q14680); conditions: 1 µM, assay duplicates
Description: as §1, §2, §3

PIM3 = PIM3 (Homo sapiens, UniProt Q86V86); conditions: 1 µM, assay duplicates
Description: as §1, §2, §3

FGF-R1 = FGF-R1 (Homo sapiens, UniProt P11362); conditions: 1 µM, assay duplicates
Chain of FGF-R1 (P11362 22-822): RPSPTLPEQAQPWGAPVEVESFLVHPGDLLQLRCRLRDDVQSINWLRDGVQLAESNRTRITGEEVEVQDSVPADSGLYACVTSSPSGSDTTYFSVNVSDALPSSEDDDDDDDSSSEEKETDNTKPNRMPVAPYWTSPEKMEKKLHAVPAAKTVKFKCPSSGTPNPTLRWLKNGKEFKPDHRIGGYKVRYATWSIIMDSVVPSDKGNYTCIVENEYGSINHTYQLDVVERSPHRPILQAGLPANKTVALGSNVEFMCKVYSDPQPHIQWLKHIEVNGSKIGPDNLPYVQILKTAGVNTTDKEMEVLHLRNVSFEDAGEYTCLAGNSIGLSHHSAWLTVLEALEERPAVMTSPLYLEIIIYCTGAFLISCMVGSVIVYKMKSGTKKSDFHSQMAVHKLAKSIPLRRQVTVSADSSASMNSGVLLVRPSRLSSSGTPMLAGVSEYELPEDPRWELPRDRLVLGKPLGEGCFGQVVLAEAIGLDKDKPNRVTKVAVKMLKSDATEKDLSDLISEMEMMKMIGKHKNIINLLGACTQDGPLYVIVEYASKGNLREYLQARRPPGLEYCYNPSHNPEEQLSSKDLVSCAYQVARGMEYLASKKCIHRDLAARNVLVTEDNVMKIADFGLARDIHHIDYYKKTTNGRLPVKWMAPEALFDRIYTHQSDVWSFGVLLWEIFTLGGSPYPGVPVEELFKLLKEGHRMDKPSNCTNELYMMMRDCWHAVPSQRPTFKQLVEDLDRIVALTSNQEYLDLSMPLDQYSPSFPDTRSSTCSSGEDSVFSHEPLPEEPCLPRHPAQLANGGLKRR
Description: as §1, §2, §3

IKKb = IKKb (Homo sapiens, UniProt O14920); conditions: 1 µM, assay duplicates
Description: as §1, §2, §3

IR = IR (Homo sapiens, UniProt P06213); conditions: 1 µM, assay duplicates
Description: as §1, §2, §3

NEK6 = NEK6 (Homo sapiens, UniProt Q9HC98); conditions: 1 µM, assay duplicates
Description: as §1, §2, §3

Aurora A = molecular target: T1, Aurora A (Homo sapiens, UniProt O14965); conditions: 1 µM, assay duplicates
T1 sequence (O14965 1-403): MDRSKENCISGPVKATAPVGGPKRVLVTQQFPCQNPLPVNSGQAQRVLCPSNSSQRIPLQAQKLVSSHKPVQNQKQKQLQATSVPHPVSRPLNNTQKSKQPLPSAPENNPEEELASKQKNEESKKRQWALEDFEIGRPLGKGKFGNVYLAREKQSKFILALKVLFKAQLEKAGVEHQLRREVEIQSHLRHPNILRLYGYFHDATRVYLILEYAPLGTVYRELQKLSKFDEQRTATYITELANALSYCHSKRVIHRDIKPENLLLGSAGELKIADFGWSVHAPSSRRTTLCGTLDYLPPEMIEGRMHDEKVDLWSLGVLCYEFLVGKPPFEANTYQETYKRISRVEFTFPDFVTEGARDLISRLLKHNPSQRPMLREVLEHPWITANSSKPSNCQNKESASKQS
Description: as §1, §2, §3

CK2 = CK2 (Homo sapiens, UniProt P68400); conditions: 1 µM, assay duplicates
Description: as §1, §2, §3

EPH-A4 = EPH-A4 (Homo sapiens, UniProt P54764); conditions: 1 µM, assay duplicates
Description: as §1, §2, §3

DYRK1A = DYRK1A (Homo sapiens, UniProt Q13627); conditions: 1 µM, assay duplicates
Description: as §1, §2, §3

JAK2 = JAK2 (Homo sapiens, UniProt O60674); conditions: for JAK2 inhibition: 1 μM; for JAK2 % activity remaining: 1 µM, assay duplicates
Chain of JAK2 (O60674 whole entry): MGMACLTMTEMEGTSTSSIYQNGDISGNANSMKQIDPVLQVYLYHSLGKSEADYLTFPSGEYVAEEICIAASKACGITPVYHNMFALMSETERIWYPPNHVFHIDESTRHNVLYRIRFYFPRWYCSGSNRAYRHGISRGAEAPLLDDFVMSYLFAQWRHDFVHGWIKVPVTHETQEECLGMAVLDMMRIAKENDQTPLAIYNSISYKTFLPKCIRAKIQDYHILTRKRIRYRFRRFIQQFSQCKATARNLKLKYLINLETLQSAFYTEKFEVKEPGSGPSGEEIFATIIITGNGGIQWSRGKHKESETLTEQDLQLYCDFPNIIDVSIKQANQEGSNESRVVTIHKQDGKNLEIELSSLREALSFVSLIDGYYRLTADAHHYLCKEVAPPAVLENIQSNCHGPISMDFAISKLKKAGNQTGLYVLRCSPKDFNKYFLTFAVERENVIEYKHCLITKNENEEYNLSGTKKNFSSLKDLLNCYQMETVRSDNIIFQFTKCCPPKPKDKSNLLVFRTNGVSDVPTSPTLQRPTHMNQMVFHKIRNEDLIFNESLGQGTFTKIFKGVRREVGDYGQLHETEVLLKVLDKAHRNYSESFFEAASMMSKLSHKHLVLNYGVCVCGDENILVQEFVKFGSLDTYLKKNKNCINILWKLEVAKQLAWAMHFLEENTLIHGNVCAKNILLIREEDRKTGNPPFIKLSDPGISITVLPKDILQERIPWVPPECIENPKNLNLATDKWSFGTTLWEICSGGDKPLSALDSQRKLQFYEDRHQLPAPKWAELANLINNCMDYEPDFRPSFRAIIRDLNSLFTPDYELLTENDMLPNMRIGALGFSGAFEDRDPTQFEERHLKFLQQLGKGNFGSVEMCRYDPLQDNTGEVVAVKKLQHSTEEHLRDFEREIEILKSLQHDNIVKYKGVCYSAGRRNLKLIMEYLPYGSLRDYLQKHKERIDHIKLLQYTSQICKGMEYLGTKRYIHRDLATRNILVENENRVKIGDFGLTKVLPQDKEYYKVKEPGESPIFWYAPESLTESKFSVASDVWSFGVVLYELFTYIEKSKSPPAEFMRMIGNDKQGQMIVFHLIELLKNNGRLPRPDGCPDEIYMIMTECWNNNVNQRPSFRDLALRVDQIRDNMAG
Description: as §1, §2, §3

HIPK1 = HIPK1 (Homo sapiens, UniProt Q86Z02); conditions: 1 µM, assay duplicates
Chain of HIPK1 (Q86Z02 whole entry): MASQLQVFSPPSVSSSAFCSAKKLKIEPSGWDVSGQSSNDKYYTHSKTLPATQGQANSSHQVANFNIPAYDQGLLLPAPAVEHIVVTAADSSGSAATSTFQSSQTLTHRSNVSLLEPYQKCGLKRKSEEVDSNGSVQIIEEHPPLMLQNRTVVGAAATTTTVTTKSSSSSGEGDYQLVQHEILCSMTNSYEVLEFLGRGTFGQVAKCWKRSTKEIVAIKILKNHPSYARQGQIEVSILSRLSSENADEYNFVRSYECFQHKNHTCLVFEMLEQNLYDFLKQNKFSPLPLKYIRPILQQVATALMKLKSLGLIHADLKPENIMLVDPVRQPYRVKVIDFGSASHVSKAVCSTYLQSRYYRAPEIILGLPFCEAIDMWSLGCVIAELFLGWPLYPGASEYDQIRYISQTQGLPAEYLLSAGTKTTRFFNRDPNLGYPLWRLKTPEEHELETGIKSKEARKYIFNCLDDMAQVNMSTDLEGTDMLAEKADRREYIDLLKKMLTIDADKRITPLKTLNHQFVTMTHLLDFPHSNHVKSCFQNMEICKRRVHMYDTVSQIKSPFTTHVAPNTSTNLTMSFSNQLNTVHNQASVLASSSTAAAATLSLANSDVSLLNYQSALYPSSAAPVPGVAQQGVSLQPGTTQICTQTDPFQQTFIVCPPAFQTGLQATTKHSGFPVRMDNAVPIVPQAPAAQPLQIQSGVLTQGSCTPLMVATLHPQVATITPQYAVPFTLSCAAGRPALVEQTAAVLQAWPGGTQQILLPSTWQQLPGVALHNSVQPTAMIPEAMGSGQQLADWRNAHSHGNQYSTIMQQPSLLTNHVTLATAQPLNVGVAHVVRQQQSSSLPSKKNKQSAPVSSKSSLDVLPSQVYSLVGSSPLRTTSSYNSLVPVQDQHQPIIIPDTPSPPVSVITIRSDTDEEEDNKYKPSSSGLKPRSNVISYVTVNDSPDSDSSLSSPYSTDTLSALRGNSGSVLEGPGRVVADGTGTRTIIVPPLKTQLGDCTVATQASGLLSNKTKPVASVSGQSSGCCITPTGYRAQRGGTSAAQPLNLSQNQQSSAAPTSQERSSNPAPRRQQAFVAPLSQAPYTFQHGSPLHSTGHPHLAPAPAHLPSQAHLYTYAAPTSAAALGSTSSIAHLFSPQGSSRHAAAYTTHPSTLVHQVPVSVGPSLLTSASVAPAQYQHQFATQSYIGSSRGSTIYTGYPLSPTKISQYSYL
Description: as §1, §2, §3

ERK1 = ERK1 (Homo sapiens, UniProt P27361); conditions: 1 µM, assay duplicates
Description: as §1, §2, §3

MAPKAP-K3 = MAPKAP-K3 (Homo sapiens, UniProt Q16644); conditions: 1 µM, assay duplicates
Description: as §1, §2, §3

PAK5 = PAK5 (Homo sapiens, UniProt Q9P286); conditions: 1 µM, assay duplicates
Description: as §1, §2, §3

SMILES: Cc1nn(C)cc1-c1nc2c(-c3cnn(Cc4ccccc4)c3)c(Cl)cnc2[nH]1 [Compound 7a]
- LKB1 % activity remaining (LKB1): 49%
- PKA % activity remaining (PKA): 72%
- p38a MAPK % activity remaining (p38a MAPK): 90%
- PAK6 % activity remaining (PAK6): 42%
- MARK1 % activity remaining (MARK1): 31%
- JNK1 % activity remaining (JNK1): 13%
- AMPK % activity remaining (AMPK): 50%
- HER4 % activity remaining (HER4): 89%
- PKBb % activity remaining (PKBb): 62%
- PRAK % activity remaining (PRAK): 83%
- CAMKKb % activity remaining (CAMKKb): 19%
- VEGFR inhibition (VEG-FR): greater than 80%
- VEG-FR % activity remaining (VEG-FR): 6%
- EPH-A2 % activity remaining (EPH-A2): 70%
- EPH-B3 % activity remaining (EPH-B3): 99%
- S6K1 % activity remaining (S6K1): 18%
- MELK % activity remaining (MELK): 19%
- PIM3 % activity remaining (PIM3): 45%
- FGF-R1 % activity remaining (FGF-R1): 5%
- IKKb % activity remaining (IKKb): 48%
- IR % activity remaining (IR): 3%
- NEK6 % activity remaining (NEK6): 64%
- Aurora A % activity remaining (Aurora A): 1%
- CK2 % activity remaining (CK2): 62%
- EPH-A4 % activity remaining (EPH-A4): 54%
- DYRK1A % activity remaining (DYRK1A): 3%
- JAK2 inhibition (JAK2): greater than 80%
- JAK2 % activity remaining (JAK2): 2%
- HIPK1 % activity remaining (HIPK1): 3%
- ERK1 % activity remaining (ERK1): 28%
- MAPKAP-K3 % activity remaining (MAPKAP-K3): 69%
- PAK5 % activity remaining (PAK5): 36%

SMILES: Cc1cc(Cn2cc(-c3c(Cl)cnc4[nH]c(-c5cn(C)nc5C)nc34)cn2)no1 [Compound 14d]
- LKB1 % activity remaining (LKB1): 62%
- PKA % activity remaining (PKA): 63%
- p38a MAPK % activity remaining (p38a MAPK): 85%
- PAK6 % activity remaining (PAK6): 45%
- MARK1 % activity remaining (MARK1): 38%
- JNK1 % activity remaining (JNK1): 45%
- AMPK % activity remaining (AMPK): 34%
- HER4 % activity remaining (HER4): 73%
- PKBb % activity remaining (PKBb): 94%
- PRAK % activity remaining (PRAK): 100%
- CAMKKb % activity remaining (CAMKKb): 42%
- VEGFR inhibition (VEG-FR): ≥ 80%
- VEG-FR % activity remaining (VEG-FR): 7%
- EPH-A2 % activity remaining (EPH-A2): 57%
- EPH-B3 % activity remaining (EPH-B3): 54%
- S6K1 % activity remaining (S6K1): 12%
- MELK % activity remaining (MELK): 49%
- PIM3 % activity remaining (PIM3): 55%
- FGF-R1 % activity remaining (FGF-R1): 7%
- IKKb % activity remaining (IKKb): 63%
- IR % activity remaining (IR): 53%
- NEK6 % activity remaining (NEK6): 116%
- Aurora A % activity remaining (Aurora A): 1%
- CK2 % activity remaining (CK2): 57%
- EPH-A4 % activity remaining (EPH-A4): 51%
- DYRK1A % activity remaining (DYRK1A): 9%
- JAK2 inhibition (JAK2): ≥ 80%
- JAK2 % activity remaining (JAK2): 2%
- HIPK1 % activity remaining (HIPK1): 22%
- ERK1 % activity remaining (ERK1): 52%
- MAPKAP-K3 % activity remaining (MAPKAP-K3): 103%
- PAK5 % activity remaining (PAK5): 41%
